What was measured:
AR [1] = experiment: Mammalian two-hybrid assay hRad9 / AR in PC-3 cells; assay type: cell-based, human
Experimental: PC-3, CWR22R, and LNCaP cell lines were maintained in […] supplemented with 10% fetal calf serum (FCS). Transient transfection for luciferase assays was carried out in 24-well plates (5×10^4 cells per well) using SuperFect as described previously (Lin, H. K., et al., Embo J 21:4037-48 (2002)). DNA mixtures in transfection assay were indicated in each figure. The total amount of transfected DNA was kept constant (1 μg) by adding the corresponding amounts of empty expression plasmids. After transfection, cells were cultured in […] supplemented with 5% charcoal-stripped FCS in the presence or absence of 10 nM dihydrotestosterone (DHT) for 18 h. Luciferase assays were performed as previously described (Yang, L., et al., J Biol Chem 278:16820-7 (2003)). In Western blotting assays, CWR22R or LNCaP cells were transfected by electroporation using 5×10^6 cells/0.4 ml of RPMI medium containing 2% FCS plus 9 μg of the indicated plasmids. 1 μg of EGFP expression vector was used for transfection efficiency. Electroporation was performed at 250 V and 950 μF using Gene Pulser II (Bio-Rad)

MAPK = settings: cited from earlier work
AR [2] = experiment: TSA effect on AR transactivation, reporter assay in COS-1 cells; assay type: cell-based, human; settings: 1 nM TSA
Experimental: H1299 and COS-1 cells were maintained in Dulbecco's modified Eagle's medium (DMEM) (Life Technologies, Inc.) supplemented with 10% heat inactivated fetal bovine serum (FBS). LNCap cells were maintained in RPMI 1640 supplemented with […]. All media contain 100 units penicillin, 100 μg/ml streptomycin and 2 mM L-glutamine. Cells were seeded to a density of 50-60% confluency for transfection. In transfections where H1299 and COS-1 cells were used, the calcium phosphate precipitation method was used as described (Pan H J, et al. 1999. Endocrine 11:321-327) unless otherwise noted. […] In other reporter gene assays, where ligand treatment was required, cell culture media were changed to DMEM containing 10% charcoal-dextran-stripped FBS (CD-FBS) 2 h before transfection. After 16-18 h transfection, cells were treated with medium containing either vehicle or ligands for another 20-24 h and then cells were harvested. With LNCap cells transfection, the cells were treated with fresh RPMI 1640 containing 10% CD-FBS before transfection with SuperFect performed according to the manufacturer's protocol (Qiagen). After transfection, cells were allowed to recover in fresh RPMI 1640 containing 10% CD-FBS for 8-12 h, and then treated with either vehicle or ligands for another 20-24 h before harvesting. Each experiment was repeated at least three times.

COS-1 and H1299 = experiment: TSA toxicity in transfected cells
[3] = tested on: MAPK (GAL4-Elk1 transactivation); experiment: GAL4-Elk1 reporter gene assay (MAPK activation) in MCF7 cells; assay type: cell-based, human
Experimental: Cells were plated in 96-well plates and plasmids at 0.5 μg per well were transfected into cells using SuperFect (Qiagen). The medium was changed 2 h after transfection and cells were cultured in the medium containing 10% CDS-FBS or 0.2% HI-FBS for 16 h, followed by treatment with 50 ng/ml EGF, 100 ng/ml IGF-1,100 ng/ml HRG-α 0.1 nM E2, or 1 nM DHT for another 16 h. Cells were then harvested and the luciferase activity was analyzed using Dual-Luciferase Reporter Assay System (Promega). 5 ng pRL-TK per well was used as internal control.

[4] = tested on: AR expression in AR^+/+ MCF7 cells; experiment: AR siRNA transfection of AR+/+ MCF7 cells: Ki67 immunostaining, Ki67 and c-myc mRNA, S-phase entry; assay type: cell-based, human
Experimental: All animal experimentation was conducted in accordance with accepted standards of humane animal care. Tissues were fixed in 4% paraformaldehyde for 24 h at 4° C. Paraffin-embedded tissues were sectioned (5-7 μm) onto Probe-On Plus charged slides (Fisher Scientific, Pittsburgh, Pa.). Fresh mammary gland tissues were frozen in liquid nitrogen and stored at −80° C. before RNA extraction. 3 μg of total RNA was reverse-transcribed (RT) and subjected to real-time PCR using iCycle (Bio-Rad). Primer sequences were designed by Beacon Designer II software (Bio-Rad) and the formula used were described previously (Bieche et al. 2001). β-Actin was used as an internal control.
For IHC, sections were heated at 55° C. at least 2 h, deparaffinized in xylene, rehydrated, and washed in Tris-buffered saline (TBS)/pH 8.0. For antigen retrieval, slides were microwaved in 0.01 M sodium citrate/pH 6.0, and immersed with 1% hydrogen peroxide in methanol for 30 min, then blocked with 20% normal goat serum in TBS for 60 min. After washing with PBS, sections were incubated for 90 min in different antibody of diluted 1:200 to 1:500 in TBS containing 1% bovine serum albumin (BSA), followed by goat anti-rabbit biotinylated secondary antibody diluted 1:300 in TBS containing 1% BSA. Then sections were incubated with ABC solution for 30 min, followed by development with DAB peroxidase substrate kit (Vector Laboratories) for 5 min. Slides were counterstained with hematoxylin for 30 sec, then dehydrated, cleaned in xylene, and mounted. Primary antibody was replaced with normal rabbit IgG or 1% BSA in TBS for negative controls. For BrdU labeling, BrdU reagent and BrdU staining kit were purchased from Zymed Laboratories.
A small interfering RNA was expressed in mammalian cells by transfection of a DNA-based vector BS/U6 (Sui et al. 2002) containing a homologous sequence ([…]-TAGCTAC SEQ ID NO:9), a 6-bp spacer (CTCGAG), an inverted homologous sequence ([…] SEQ ID NO:10), and 5 Ts, at the transcription initiation site of the U6 promoter. See SEQ ID NO. 11 and 12 for fall AR siRNA.

AR [5] = experiment: Luc reporter assay in stably transfected CWR22R cells; assay type: cell-based, human; settings: CWR22R-S9A-GSK3β cells, doxycycline induction
Experimental: (§1) COS-1 and PC-3 cells were maintained in early to mid-log phase in DMEM medium, supplemented with 10% fetal bovine serum (FBS), 50 units/ml penicillin and 50 μg/ml streptormnycin in incubators with humidified air and 5% carbon dioxide at 37° C. LNCaP cells were maintained in RPMI (GIBCO/BRL) medium. Twenty-four h prior to transfection, cells washed with Hanks' buffered saline solution, trypsinized, and seeded to be a density of 40-60% confluence for transfection. Cells in 12 well plates were refed with fresh medium 2 hours before transfection and transfected according to the “SuperFect Transfection” instructions (QIAGEN). After 2-3 h incubation, cells were treated with medium supplemented with charcoal-dextran treated FBS containing either ethanol or ligands. Cells were further incubated at 37° C. for 24 h, washed with PBS, and harvested.
The S9A-GSK3β gene was inserted into pBig vector with hygromycin resistance. The S9A-GSK3β-transfected CWR22R cells were selected and maintained in RPMI medium containing 50 μg/ml hygromycin (GIBCO).

CWR22R cells = experiment: MTT growth assay of stably transfected CWR22R cells; assay type: cell-based, human; settings: CWR22R-S9A-GSK3β cells, 10 nM DHT, 2 μg/ml doxycycline, 5 days
Experimental: The MTT assay is a quantitative colorimetric assay for mammalian cell survival and proliferation. The 5×10^3 CWR22R cells were seeded in 24-well plates and incubated in RPMI medium 1640 with 5% CS-FCS for 48 h. Cells were then treated with ethanol, 10 nMDHT, and/or 2 μg/ml doxycycline for another 5 days. Then 200 μl of MTT (5 mg/ml; Sigma) was added into the each well with 1 ml of medium for 3 h at 37° C. After incubation, 2 ml of 0.04 M HCl in isopropyl alcohol was added into each well. After 5-min incubation at room temperature, the absorbance was read at a test wavelength of 570 nm.

AR [6] = experiment: AR transactivation luciferase assay in COS-1 cells with GSK3β; assay type: cell-based, human; settings: ARE4-Luc, 10 nM DHT
Experimental: as §1
Target sequence in this assay (P10275 with tags, fused parts or gaps DEL79-80/DUP473-473): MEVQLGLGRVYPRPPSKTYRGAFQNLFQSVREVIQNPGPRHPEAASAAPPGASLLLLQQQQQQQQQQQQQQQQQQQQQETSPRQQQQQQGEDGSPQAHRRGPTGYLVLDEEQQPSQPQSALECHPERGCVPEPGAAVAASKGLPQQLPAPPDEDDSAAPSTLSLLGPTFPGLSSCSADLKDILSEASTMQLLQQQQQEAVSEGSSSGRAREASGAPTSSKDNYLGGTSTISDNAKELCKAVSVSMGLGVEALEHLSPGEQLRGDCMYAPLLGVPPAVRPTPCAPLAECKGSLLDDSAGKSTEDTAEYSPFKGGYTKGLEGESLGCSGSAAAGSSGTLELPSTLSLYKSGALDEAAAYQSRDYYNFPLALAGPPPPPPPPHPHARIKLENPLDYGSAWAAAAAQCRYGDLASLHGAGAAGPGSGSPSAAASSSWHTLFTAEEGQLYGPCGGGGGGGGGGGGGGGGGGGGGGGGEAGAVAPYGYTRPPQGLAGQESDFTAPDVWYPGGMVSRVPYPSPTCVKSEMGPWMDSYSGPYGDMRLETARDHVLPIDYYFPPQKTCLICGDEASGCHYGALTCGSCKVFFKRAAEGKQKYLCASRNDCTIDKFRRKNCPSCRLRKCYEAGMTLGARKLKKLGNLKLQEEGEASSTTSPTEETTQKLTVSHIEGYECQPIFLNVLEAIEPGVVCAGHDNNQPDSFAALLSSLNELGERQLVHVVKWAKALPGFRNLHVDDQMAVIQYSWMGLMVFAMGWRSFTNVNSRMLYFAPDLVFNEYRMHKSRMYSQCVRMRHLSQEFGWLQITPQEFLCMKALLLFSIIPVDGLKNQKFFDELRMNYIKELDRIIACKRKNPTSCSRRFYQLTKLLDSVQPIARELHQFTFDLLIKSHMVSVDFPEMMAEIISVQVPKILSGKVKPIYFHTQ

[7] = AR siRNA-transfected AR^+/+ MCF7 cells

CC(C)(O)C(=O)Nc1ccc([N+](=O)[O-])c(C(F)(F)F)c1 [HF, hydroxyflutamide, reference compound]
androgen-induced interaction between AR and hRad9 (AR [1]; 10^−5 M HF, 10^−8 M DHT): inhibited

COc1cccc(-c2cc(=O)c3ccccc3o2)c1N [PD098059]
Her2/Neu-, H-Ras- or C-myc-initiated mammary tumor growth (MAPK; Amundadottir and Leder 1998): inhibit | mammary gland alveolar morphogenesis (MAPK; Niemann et al. 1998): inhibit

CC(/C=C/C(=O)NO)=C\[C@@H](C)C(=O)c1ccc(N(C)C)cc1 [TSA, trichostatin A]
DHT-induced AR transactivation (AR [2]): enhanced | TSA concentration causing significant cell death (COS-1 and H1299): ≥ 10 nM | toxic effect (COS-1 and H1299; 1 nM TSA): no obvious toxic effect

N#CC(=C(/N)Sc1ccccc1N)/C(C#N)=C(\N)Sc1ccccc1N [U0126, reference compound]
AR-activated GAL4-Elk1 activity ([3]; AR-FL-activated, pG5-luc reporter): diminished

AR siRNA: small interfering RNA against AR expressed from the DNA-based vector BS/U6 (GGGCCCCTGGATGGATAGCTACCTCGAGGTAGCTATCCATCCAGGGGCC)
Ki67 immunostaining [4, 7]: lower degree | mRNA level of Ki67 reduced by [4, 7]: 42% | mRNA level of c-myc reduced by [4, 7]: 81% | number of cells entering S-phase of the cell cycle ([4]; AR^+/+ MCF7 cells, IGF-I/EGF/HRG-α): diminish | IGF-I/EGF/HRG-α-induced MAPK activation ([3]; AR^+/+ MCF7 cells transfected with AR siRNA): diminish

PKKFRSLFFGSI [GAL4-FXXLF fusion peptides]
interaction with AR (AR [1]; 10 nM DHT): Androgen-dependent interactions were demonstrated

S9A-GSK3β: constitutively active form of GSK3β
AR transactivation reduced by (AR [5]): 30% | cell growth (MTT assay) (CWR22R cells): obvious growth arrest | effect on AR activity (AR [6]): strongly inhibited

From patent US20080050387A1, “Non-Androgen Dependent Roles for Androgen Receptor and Non-Androgen Related Inhibitors of Androgen Receptor” (priority 2003, published 2008)
